# Tests used:
# Type in all cases: cell-based, mouse
# [1] = tested on: Pmel T cells; assay: Golgi stress (monensin, H2O2, thapsigargin) in Pmel T cells: GM130, ROS, Golgi dispersion; parameters: cell death / mitochondrial ROS / monensin-induced cell death and mitochondrial ROS accumulation / ER stress (p-PERK): dose or concentration left out as unconfirmed
# Experimental: (FIG. 21A) Levels of intracellular glutathione assessed using FACS by employing ThiolTracker Violet dye in control CD19 CAR-T cells or CAR-T cells overexpressing Cbs (CbstdCD19-CAR-T) (n=3). (FIG. 21B) 12 hour Thapsigargin (700 nM) treatment was used to induce ER stress in WT T cells, Cbs-KO T cells, and Cbs-KO T cells+H2S. Levels of phosphorylated PERK were assessed by FACS (n=3). (FIG. 21C) Pmel T cells were treated with either Thapsigargin (700 nM) or Monensin (1 mM) for 12 hours, followed by staining for phosphorylated PERK (p-PERK) and GM130 to assess ER stress and Golgi stress, respectively (n=4). (FIG. 21D) Activated Pmel T cells were treated for 12 hours with either vehicle control or 1 mM Monensin (“+Golgi stress”) before being stained for giantin to assess Golgi dispersion. […] (FIG. 21E) Representative confocal microscopy images of mitochondria (Tom20) and Golgi (giantin) in human PBMCs treated with vehicle control or 0.5 mM GYY4137.
# T cells were stained with conjugated for surface markers as described in the figure legends followed by fixation and permeabilization with BD Cytofix/Cytoperm Kit (BD Biosciences, 554722). The Golgi was labeled using anti-Giantin antibody (Abcam, ab80864) as the primary antibody followed by secondary antibody staining with anti-Rabbit IgG conjugated to Alexa Fluor 488 (ab150077). The cells were then imaged using ImageStreamX mark II imaging flow-cytometer and analyzed using IDEAS 6.2. Spectral overlap was compensated for using single-stain controls. Image analysis for Golgi area was performed using the protocol established by Eisenberg-Lerner et al.44 First, cells were gated on single cells using the area and aspect ratio features, and then gated on focused cells using the Gradient RMS feature. Golgi area was calculated using the anti-Giantin fluorescence signaling, using on the Threshold_50 mask that includes the 50% highest intensity pixels of the Golgi staining, with a mask defined as Area Threshold 50 was considered as the Golgi area to compare between the relevant conditions.
# [2] = tested on: Prdx4 knockdown T cells; assay: Prdx4 siRNA knockdown Pmel T cells under Golgi/oxidative stress
# Experimental: (FIG. 22A) Pmel T cells were activated for 3 days before treatment with vehicle or 50 mM H2O2 for 6 hrs. Prdx4-Golgi colocalization was assessed by PLA using mouse anti-Giantin and rabbit anti-Prdx4 antibodies. (FIG. 22B) Activated Pmel T cells treated with vehicle or 50 mM H2O2 for 6 hrs or 24 hrs with Monensin (1 mM). PLA assay was performed using anti-Giantin and anti-Prdx4 antibodies. (FIG. 22C) Experimental design using Prdx4-targeted siRNA to silence expression of Prdx4 in Pmel T cells. (FIG. 22D) GM130 expression assessed under control versus Monensin (1 μM) conditions in T cells treated with control-siRNA or Prdx4-siRNA. (FIG. 22E) GM130 expression assessed under control versus 50 mM H2O2 conditions in T cells treated with control-siRNA or Prdx4-siRNA+/−0.5 mM GYY4137. (FIG. 22F) Protein translation assessed in Pmel T cells activated+/−GYY4137 and treated with control-siRNA or Prdx4-siRNA. (FIG. 22G) GM130 expression in Pmel T cells treated with vehicle, GYY4137, or Catalase (10 μg/mL). (FIGS. 22H and 22I) Site directed mutagenesis performed to mutate cysteine-54 of the Prdx4 gene. Prdx4-targeted shRNA was used to knock down expression of Prdx4 in Jurkat T cells, followed by transfection with plasmid containing wildtype or mutated Prdx4. (FIG. 22I) GM130 expression assessed after treatment with 50 mM H2O2+/−GYY4137. (FIG. 22J) B16-F10 tumors were injected s.c. into flanks of Pmel mice and grown to ˜100 mm2. TILs and T cells from tumor-draining lymph nodes were isolated via Ficoll spin followed by magnetic bead positive selection. FACS analysis of Prdx4 expression in TILs gated on PD1loLag3lo vs PD1hiLag3hi. (FIG. 22K) Lentiviral supernatant was generated using GFP-tagged control plasmid or GFP-tagged Prdx4-overexpression plasmid. Pmel T cells were transduced with control or Prdx4 lentivirus. Pmel T cells overexpressing Prdx4 and control T cells were treated with H2O2 (50 mM) followed by staining with anti-GM130.
# Given the delicate redox balance necessary for the native disulfide bonds, it was postulated that a localized mechanism for the detection and elimination of ROS produced during the oxidative folding process may require Prdx4. Thus, it was hypothesized that ER and Golgi network stress mitigated by H2S is mediated through the Prdx4 localization and activity in these organelles. First, it was established if Prdx4 also localizes within the Golgi apparatus in T cells using a proximity ligation assay (PLA), a tool that allows in situ detection of endogenous proteins with high specificity and sensitivity, with antibodies directed against Giantin (a conserved Golgi membrane protein) and Prdx4. […] Next, using siRNA targeting Prdx4, expression of Prdx4 in CD8+ Pmel T cells was knocked down (FIG. 22C, FIGS. 23A and 23B). The cells were then subjected to conditions of oxidative and Golgi stress in the presence or absence of H2S treatment. […] Then, to determine whether the protective effect of H2S on Golgi stress is dependent on the presence of Prdx4, Golgi stress was induced in the presence or absence of H2S with control (siCtl) and Prdx4 knockdown (siPrdx4) T cells.
# [3] = tested on: CD8+ Pmel T cells; assay: RT-PCR of CBS and CSE in cytokine-treated CD8+ Pmel T cells; details: CD8+ Pmel T cells activated 3 days in presence of cytokine
# Description: (FIG. 13A) Pmel T cells were stained with trypan blue stain on day 3 following activation with gp100+IL2 (100 IU/ml) and treated with concentrations of GYY4137 (n=5). (FIG. 13B) Gating strategy for FACS analysis. Pmel splenocytes stained with LIVE/DEAD Fixable Yellow dye and anti-CD8 PE-Cy7. All FACS samples were first gated on the lymphocyte population based on FSA vs SSA. Single cells were gated using FSA vs. FSH. Live cells were gated using live/dead exclusion dye. CD8+ cells were gated by selecting the positive population. (FIG. 13C) Pmel T cells were stimulated with gp100 tumor antigen and treated with either vehicle or GYY4137 (0.5 mM) and analyzed by FACS for expression of CD62L and CD44 at day 0, day 2, day 4, and day 6. […] (FIG. 13F) CD8+ Pmel T cells were activated for 3 days in the presence of various cytokines and analyzed for mRNA expression of CBS and CSE. […] Splenocytes were activated with anti-CD3 and anti-CD28 antibodies an analyzed for expression of Cbs by western blot. (FIG. 13H) Splenocytes from WT and Cbs-KO mice were expanded with either IL-2 or expanded with IL-15 (10 ng/ml) with or without addition of H2S to the Cbs-KO cells and analyzed for expression of CD62L and CD44 by FACS (n=3). […] At day 14, the mice were bled and the frequency of CD3+ T cells was assessed by FACS (n=5). […] (FIG. 13K) Cells were analyzed using FACS for expression of PD1, TIM3, Lag3, and CD38 (n=3). […]
molecule,measurement,setting,value
C/C=C(/C)C(=O)O[C@H]1C(C)=C2[C@H]([C@@H]1OC(=O)CCCCCCC)[C@@](C)(OC(C)=O)C[C@H](OC(=O)CCC)[C@@]1(O)[C@H]2OC(=O)[C@@]1(C)O [Thapsigargin],Golgi stress (GM130),[1]; Thapsigargin (700 nM) 12 hours,nor did Thapsigargin induced Golgi stress
CC[C@@]1([C@@H]2O[C@@H]([C@H]3O[C@@](O)(CO)[C@H](C)C[C@@H]3C)C[C@@H]2C)CC[C@H]([C@]2(C)CC[C@]3(C[C@H](O)[C@@H](C)[C@@H]([C@@H](C)[C@@H](OC)[C@H](C)C(=O)O)O3)O2)O1 [monensin],ER stress (p-PERK),[1],did not induce ER stress
same,cell death,[1],induced cell death
same,mitochondrial ROS,[1],cellular accumulation of mitochondrial ROS
same,"Golgi dispersion (Golgi area, ImageStream)",[1]; 1 mM Monensin 12 hours,Golgi dispersion significantly increased
same,intracellular ROS (DCFDA),[1]; 1 mM monensin,significant increase in ROS (DCFDA)
same,"decrease in GM130 expression, Prdx4 knockdown T cells",[2]; Monensin (1 μM),further exacerbated
IL6: cytokine that plays a key role in memory formation,mRNA expression of CBS and CSE,[3],significantly increased expression of both CBS and CSE
IL15: cytokine known to induce the Tcm phenotype in T cells,mRNA expression of CBS and CSE,[3],significantly increased expression of both CBS and CSE
catalase,"protection against Golgi stress (GM130), Prdx4 knockdown T cells",[2]; Catalase (10 μg/mL),protection against Golgi stress could be rescued
